Data as given in PMC10215804, “Exploring Alternative Pathways to Target Bacterial Type II Topoisomerases Using NBTI Antibacterials: Beyond Halogen-Bonding Interactions” (Antibiotics, 2023).
Values after ≈ are worked out from the molar mass of the structure shown. Where two headings read alike, the source gives them in different places.

Assays:
[1] = target: T1, E. coli topoIV (Escherichia coli, UniProt P0AFI2); assay: topoIV relaxation inhibition assay (high-throughput plate assay); type: biochemical
T1 construct: purchased Inspiralis (Norwich, UK)
Procedure: (§1) To determine the IC50 values of the compounds for S. aureus and E. coli, a DNA gyrase supercoiling high-throughput plate assay and a topoIV relaxation high-throughput plate assay were performed. Assay kits and black streptavidin-coated 96-well microtiter plates are available from Inspiralis (Norwich, UK). For pre-screening, an inhibitor concentration of 100 μM was used. […] A nonlinear regression-based fit of the inhibition curves was used, with the log [inhibitor] versus slope of the reaction variables (four parameters) and a symmetric equation. […] To determine IC50 values, two independent repetitions were performed and the average was calculated.

[2] = target: T2, S. aureus topoIV (Staphylococcus aureus, UniProt P0C1U9); assay: biochemical; conditions: relaxation inhibition; mean of two independent measurements ± SD
T2 construct: purchased Inspiralis (Norwich, UK)
Procedure: as §1

[3] = target: T3, S. aureus DNA gyrase (Staphylococcus aureus, UniProt P20831); assay: biochemical; conditions: supercoiling inhibition; mean of two independent measurements ± SD
T3 construct: purchased Inspiralis (Norwich, UK)
T3 sequence (P20831 whole entry): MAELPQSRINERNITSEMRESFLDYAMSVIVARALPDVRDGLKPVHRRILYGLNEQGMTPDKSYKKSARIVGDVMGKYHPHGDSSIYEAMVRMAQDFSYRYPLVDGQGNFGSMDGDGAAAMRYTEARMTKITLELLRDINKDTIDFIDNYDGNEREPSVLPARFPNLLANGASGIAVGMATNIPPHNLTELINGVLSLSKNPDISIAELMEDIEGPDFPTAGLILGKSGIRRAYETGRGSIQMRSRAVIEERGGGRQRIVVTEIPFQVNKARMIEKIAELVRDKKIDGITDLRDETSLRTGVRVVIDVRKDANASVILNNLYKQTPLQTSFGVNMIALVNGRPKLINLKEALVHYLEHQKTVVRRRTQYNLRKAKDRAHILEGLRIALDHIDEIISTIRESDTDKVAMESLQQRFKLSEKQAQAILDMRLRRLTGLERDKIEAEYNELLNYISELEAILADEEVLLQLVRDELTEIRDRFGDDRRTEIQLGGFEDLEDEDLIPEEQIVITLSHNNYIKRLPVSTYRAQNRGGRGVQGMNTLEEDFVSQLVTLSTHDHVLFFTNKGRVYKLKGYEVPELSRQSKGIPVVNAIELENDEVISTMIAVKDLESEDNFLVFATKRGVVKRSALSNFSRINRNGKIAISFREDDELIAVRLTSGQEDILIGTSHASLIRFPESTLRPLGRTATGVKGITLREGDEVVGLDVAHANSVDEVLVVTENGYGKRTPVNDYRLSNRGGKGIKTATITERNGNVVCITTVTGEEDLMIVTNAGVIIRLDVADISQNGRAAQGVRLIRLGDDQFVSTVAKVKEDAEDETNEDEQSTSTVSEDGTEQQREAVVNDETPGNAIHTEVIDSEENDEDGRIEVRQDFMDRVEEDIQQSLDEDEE
T3 sequence (P0A0K8 whole entry partner): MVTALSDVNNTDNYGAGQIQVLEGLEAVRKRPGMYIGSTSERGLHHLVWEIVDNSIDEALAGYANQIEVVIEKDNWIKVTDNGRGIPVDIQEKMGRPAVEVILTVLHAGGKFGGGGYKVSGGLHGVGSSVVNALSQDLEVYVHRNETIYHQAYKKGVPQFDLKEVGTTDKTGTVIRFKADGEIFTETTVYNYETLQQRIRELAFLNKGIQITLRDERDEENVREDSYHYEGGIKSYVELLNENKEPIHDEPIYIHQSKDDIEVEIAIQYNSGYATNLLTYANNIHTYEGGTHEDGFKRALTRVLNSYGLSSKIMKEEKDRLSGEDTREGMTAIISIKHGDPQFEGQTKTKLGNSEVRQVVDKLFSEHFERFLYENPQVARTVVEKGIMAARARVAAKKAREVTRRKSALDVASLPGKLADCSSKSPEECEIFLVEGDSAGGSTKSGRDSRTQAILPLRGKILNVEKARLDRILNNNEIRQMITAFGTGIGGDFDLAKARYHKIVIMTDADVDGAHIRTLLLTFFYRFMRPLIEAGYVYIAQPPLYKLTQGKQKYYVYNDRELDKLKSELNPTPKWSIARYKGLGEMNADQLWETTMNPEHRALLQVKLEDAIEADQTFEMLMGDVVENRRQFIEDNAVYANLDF
Procedure: as §1

[4] = Metabolic activity assessment (cytotoxicity), CellTiter 96 Aqueous One; type: cell-based; conditions: human, HepG2 cells (ATCC HB-8065); 72 h treatment; means of three independent measurements ± SD
Procedure: HUVEC (ATCC® CRL-1730™) and HepG2 (ATCC® HB-8065™) cell lines were cultured in Dulbecco’s Modified Eagle Medium (DMEM; Sigma-Aldrich, St. Louis, MO, USA) supplemented with 10% heat-deactivated FBS (Gibco, Grand Island, NE, USA), 2 mM L-glutamine, 100 U/mL penicillin, 100 μg/mL streptomycin (all from Sigma-Aldrich, St. Louis, MO, USA) in a humidified chamber at 37 °C and 5% CO2. The experiments were carried out on passages 4–7 for both cell lines. The tested compounds were dissolved in DMSO and further diluted in culture medium to a desired final concentration. The cells were then seeded into 96-well plates at 5 × 10^4 cells/mL (100 μL/well) or 8 × 10^4 cells/mL (100 μL/well) for HUVEC and HepG2, respectively. The cells were then incubated for 24 h to allow attachment onto the wells. The cells were treated with 1 μM and 50 μM of each compound of interest, or the corresponding vehicle as control. […] Their metabolic activity was assessed after 72 h treatment using a CellTiter 96 Aqueous One Solution Cell Proliferation Assay (Promega, Madison, WI, USA), in accordance with the manufacturer’s instructions. The absorbance was measured at 492 nm on an automated microplate reader, Tecan Spark (Tecan Group Ltd., Männedorf, CH, Switzerland). Data are presented as the percentage of metabolic activity of control cells stimulated with vehicle, or as an IC50 value (mean ± SD) from three independent experiments, each conducted in triplicate (for screening) or duplicate (for IC50 determination). IC50 values were calculated using a non-linear regression model and with Graph Pad Prism 9 software.

[5] = target: T4, E. coli DNA gyrase (Escherichia coli, UniProt P0AES4); assay: DNA gyrase supercoiling inhibition assay (high-throughput plate assay); type: biochemical
T4 construct: purchased Inspiralis (Norwich, UK)
T4 sequence (P0AES4 whole entry): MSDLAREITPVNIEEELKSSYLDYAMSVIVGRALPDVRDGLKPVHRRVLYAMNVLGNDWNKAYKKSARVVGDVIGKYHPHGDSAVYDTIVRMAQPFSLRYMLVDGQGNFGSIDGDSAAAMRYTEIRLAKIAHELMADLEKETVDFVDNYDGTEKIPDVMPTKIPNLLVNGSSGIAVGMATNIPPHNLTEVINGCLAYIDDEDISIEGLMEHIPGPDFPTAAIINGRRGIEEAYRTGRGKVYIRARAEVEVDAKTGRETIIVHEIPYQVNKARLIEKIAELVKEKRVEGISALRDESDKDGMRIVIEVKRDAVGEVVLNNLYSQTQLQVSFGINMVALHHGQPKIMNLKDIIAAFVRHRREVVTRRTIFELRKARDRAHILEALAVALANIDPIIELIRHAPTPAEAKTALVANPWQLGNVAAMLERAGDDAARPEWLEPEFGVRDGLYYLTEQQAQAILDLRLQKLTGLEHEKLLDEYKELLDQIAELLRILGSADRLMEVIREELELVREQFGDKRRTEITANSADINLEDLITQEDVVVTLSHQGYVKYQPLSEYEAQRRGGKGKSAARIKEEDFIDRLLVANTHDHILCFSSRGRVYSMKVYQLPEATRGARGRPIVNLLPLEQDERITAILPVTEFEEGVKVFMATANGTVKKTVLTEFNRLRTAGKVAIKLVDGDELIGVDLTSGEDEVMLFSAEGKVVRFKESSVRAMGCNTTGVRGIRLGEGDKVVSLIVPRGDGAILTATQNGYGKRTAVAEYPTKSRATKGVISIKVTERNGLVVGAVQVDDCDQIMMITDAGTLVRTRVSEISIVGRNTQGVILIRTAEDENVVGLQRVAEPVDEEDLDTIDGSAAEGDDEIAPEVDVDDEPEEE
Procedure: as §1

[6] = tested on: MRSA(QA-12.1); assay: MIC, broth microdilution; type: cell-based, S. aureus; conditions: Staphylococcus aureus
Procedure: (§2) For the determination of minimum inhibitory concentrations (MIC), the broth microdilution method was used in 96-well plate format, according to the guidelines of the Clinical and Laboratory Standards Institute and the recommendations of the European Committee on Antimicrobial Susceptibility Testing (EUCAST). The dilutions of the bacterial suspension of the specific bacterial strain, corresponding to the 0.5 McFarland turbidity standard, were prepared with […] Mueller–Hinton broth with TES (Thermo Fisher Scientific) to obtain an end inoculum of 10^5 CFU/mL. The compounds were dissolved in DMSO and mixed with the inoculum. […] The MIC was determined as the lowest concentration of antibiotic that prevented visible bacterial growth. Tetracycline was used as a positive control on each test plate.

[7] = tested on: MRSA (QA-11.7); assay: MIC, broth microdilution; type: cell-based, S. aureus; conditions: Staphylococcus aureus
Procedure: as §2

[8] = tested on: MRSA (QA-11.2); assay: MIC, broth microdilution; type: cell-based, S. aureus; conditions: Staphylococcus aureus
Procedure: as §2

[9] = tested on: VRE; assay: MIC, broth microdilution; type: cell-based; conditions: Enterococcus
Procedure: as §2

[10] = tested on: E. faecalis RDK 057; assay: MIC, broth microdilution; type: cell-based; conditions: Enterococcus faecalis, RDK057
Procedure: as §2

[11] = tested on: A. baumannii; assay: MIC, broth microdilution; type: cell-based; conditions: Acinetobacter baumannii
Procedure: as §2

[12] = tested on: E. coli (ATCC 25922); assay: MIC, broth microdilution; type: cell-based; conditions: Escherichia coli, ATCC25922
Procedure: as §2

[13] = tested on: K. pneumoniae; assay: MIC, broth microdilution; type: cell-based; conditions: Klebsiella pneumoniae
Procedure: as §2

[14] = tested on: E. coli N43 (CGSC# 5583); assay: MIC, broth microdilution; type: cell-based; conditions: Escherichia coli
Procedure: as §2

[15] = tested on: E. coli ESBL QA-11.3; assay: MIC, broth microdilution; type: cell-based; conditions: Escherichia coli, ESBLQA11.3
Procedure: as §2

[16] = tested on: S. aureus (ATCC 29213); assay: MIC, broth microdilution; type: cell-based; conditions: Staphylococcus aureus, ATCC29213
Procedure: as §2

[17] = tested on: P. aeruginosa RDK 184; assay: MIC, broth microdilution; type: cell-based; conditions: Pseudomonas aeruginosa
Procedure: as §2

[18] = tested on: E. coli D22; assay: MIC, broth microdilution; type: cell-based; conditions: Escherichia coli, D22
Procedure: as §2

[19] = target: T5, human topoisomerase IIα (Homo sapiens, UniProt P11388); assay: human topoisomerase II alpha relaxation high-throughput assay (selectivity); type: biochemical; conditions: residual activity at 100 µM compound; mean ± SD, two independent experiments; read-out: Human TopoIIα (% RA at 100 µM)
T5 construct: purchased Inspiralis (Norwich, UK)
T5 sequence (P11388 whole entry): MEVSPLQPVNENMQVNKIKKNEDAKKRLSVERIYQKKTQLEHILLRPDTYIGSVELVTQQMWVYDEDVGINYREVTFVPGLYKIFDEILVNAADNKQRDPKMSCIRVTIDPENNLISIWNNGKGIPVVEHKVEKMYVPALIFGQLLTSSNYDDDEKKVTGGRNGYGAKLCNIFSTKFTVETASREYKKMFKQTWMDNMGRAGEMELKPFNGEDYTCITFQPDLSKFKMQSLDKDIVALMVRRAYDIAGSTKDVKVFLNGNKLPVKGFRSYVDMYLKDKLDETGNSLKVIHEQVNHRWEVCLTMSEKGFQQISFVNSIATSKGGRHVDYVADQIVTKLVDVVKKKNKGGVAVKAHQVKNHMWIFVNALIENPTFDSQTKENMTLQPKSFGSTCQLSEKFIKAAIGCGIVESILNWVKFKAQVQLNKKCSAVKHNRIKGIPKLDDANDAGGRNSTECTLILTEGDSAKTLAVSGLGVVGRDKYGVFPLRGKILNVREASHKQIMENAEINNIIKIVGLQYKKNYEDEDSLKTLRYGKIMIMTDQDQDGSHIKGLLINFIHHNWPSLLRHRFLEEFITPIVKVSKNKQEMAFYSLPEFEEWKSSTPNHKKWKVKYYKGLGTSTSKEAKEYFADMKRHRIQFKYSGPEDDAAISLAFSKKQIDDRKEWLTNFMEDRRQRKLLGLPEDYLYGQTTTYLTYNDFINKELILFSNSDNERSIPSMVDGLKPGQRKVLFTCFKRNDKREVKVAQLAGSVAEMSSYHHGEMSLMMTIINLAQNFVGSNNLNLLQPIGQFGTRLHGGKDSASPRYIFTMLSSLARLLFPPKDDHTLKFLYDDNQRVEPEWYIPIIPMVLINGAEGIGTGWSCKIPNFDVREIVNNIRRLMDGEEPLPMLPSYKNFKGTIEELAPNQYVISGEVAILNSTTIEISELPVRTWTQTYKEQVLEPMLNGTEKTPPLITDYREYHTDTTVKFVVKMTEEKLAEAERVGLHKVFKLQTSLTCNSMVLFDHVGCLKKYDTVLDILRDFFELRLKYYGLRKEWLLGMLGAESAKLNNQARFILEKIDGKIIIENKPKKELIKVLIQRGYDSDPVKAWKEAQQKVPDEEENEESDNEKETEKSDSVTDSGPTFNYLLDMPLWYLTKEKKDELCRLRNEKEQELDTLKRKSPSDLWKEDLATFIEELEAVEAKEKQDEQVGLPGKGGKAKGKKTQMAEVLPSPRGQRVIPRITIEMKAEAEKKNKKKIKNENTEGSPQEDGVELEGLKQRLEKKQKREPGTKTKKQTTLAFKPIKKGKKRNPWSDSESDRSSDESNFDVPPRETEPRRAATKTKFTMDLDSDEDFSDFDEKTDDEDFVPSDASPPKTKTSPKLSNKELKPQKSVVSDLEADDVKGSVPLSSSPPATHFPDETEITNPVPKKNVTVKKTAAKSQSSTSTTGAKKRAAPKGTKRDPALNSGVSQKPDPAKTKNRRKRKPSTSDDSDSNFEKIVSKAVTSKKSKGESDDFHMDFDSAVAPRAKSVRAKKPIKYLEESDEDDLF
Procedure: For selectivity determination, a human topoisomerase II alpha relaxation high-throughput assay was used. The assay kits and black streptavidin-coated 96-well microtiter plates are available from Inspiralis (Norwich, UK). Two independent measurements were performed with an inhibitory concentration of 100 µM. Raw data were calculated as the mean ± SD percentage of the residual enzyme activity.

[20] = tested on: MRSA (QA-11.7); conditions: cited from earlier work
[21] = tested on: E. coli D22; conditions: lpxC mutation; cited from earlier work
[22] = tested on: E. coli (ATCC 25922); conditions: cited from earlier work
[23] = tested on: P. aeruginosa RDK 184; conditions: cited from earlier work
[24] = target: T3, S. aureus DNA gyrase; conditions: supercoiling inhibition; cited from earlier work
[25] = tested on: E. coli N43 (CGSC# 5583); conditions: AcrA knockout; cited from earlier work
[26] = tested on: S. aureus (ATCC 29213); conditions: cited from earlier work
[27] = tested on: E. faecalis RDK 057; conditions: cited from earlier work
[28] = target: T5, human topoisomerase IIα; conditions: residual activity at 100 µM compound; cited from earlier work
[29] = tested on: VRE; conditions: cited from earlier work

COc1ccc2nccc(CCN3CCC(NCc4ccc(Br)c(C(F)(F)F)c4)CC3)c2n1 [Compound 12, N-(4-Bromo-3-(trifluoromethyl)benzyl)-1-(2-(6-methoxy-1,5-naphthyridin-4-yl)ethyl)piperidin-4-amine]
IC50 [1]: 23 ± 6 nM
IC50 [2]: 345 ± 25 nM
IC50 [3]: 62 nM
IC50 at 72 h [4]: 12000 ± 1860 nM
IC50 [5]: 84 ± 20 nM
MIC ([6]; Table S3, read-out: MIC (μM) MRSA(QA-12.1)): 0.082 µM
MIC ([6]; strain resistant to cefoxitin, gentamicin, kanamycin, rifampicin, streptomycin, sulfamethoxazole, tetracycline, read-out: MIC MRSA(QA-12.1)): 0.032 µg/mL
MIC ([7]; read-out: MIC (μM) MRSA (QA-11.7)): 0.161 µM
MIC ([7]; strain resistant to cefoxitin, ciprofloxacin, clindamycin, erythromycin, tetracycline, thiamulin, trimethoprim, read-out: MIC MRSA (QA-11.7)): 0.063 µg/mL
MIC ([8]; read-out: MIC (μM) MRSA (QA-11.2)): 0.161 µM
MIC ([8]; read-out: MIC MRSA (QA-11.2)): 0.063 µg/mL
MIC ([9]; Table S3, read-out: MIC (μM) VRE): 0.64 µM
MIC ([9]; read-out: MIC VRE): 0.25 µg/mL
MIC ([10]; Table S3, read-out: MIC (μM) E. faecalis DRK 057): 1.28 µM
MIC ([10]; read-out: MIC E. faecalis RDK 057): 0.5 µg/mL
MIC ([11]; Table S3, read-out: MIC (μM) A. baumannii): 5.12 µM
MIC ([11]; read-out: MIC A. baumannii): 2 µg/mL
MIC ([12]; Table S3, read-out: MIC (μM) E. coli (ATCC 25922)): 10.2 µM
MIC ([12]; read-out: MIC E. coli (ATCC 25922)): 4 µg/mL
MIC ([13]; Table S3, read-out: MIC (μM) K. pneumoniae): 41 µM
MIC ([13]; read-out: MIC K. pneumoniae): 16 µg/mL
MIC ([14]; read-out: MIC (μM) E. coli N43): 0.161 µM
MIC ([14]; read-out: MIC E. coli N43 (CGSC# 5583)): 0.063 µg/mL
MIC ([15]; Table S3, read-out: MIC (μM) E. coli ESBL QA:11.3): 10.2 µM
MIC ([15]; read-out: MIC E. coli ESBL QA-11.3): 4 µg/mL
MIC ([16]; Table S3, read-out: MIC (μM) S. aureus (ATCC 29213)): 0.082 µM
MIC ([16]; read-out: MIC S. aureus (ATCC 29213)): 0.032 µg/mL
MIC ([17]; RDK184, 20 h, Table S3, read-out: MIC (μM) P. aeruginosa RDK 184): > 328 µM
MIC ([17]; RDK184, read-out: MIC P. aeruginosa RDK 184): > 128 µg/mL
MIC ([18]; Table S3, lpxC mutation, read-out: MIC (μM) E. coli D22): 0.64 µM
MIC ([18]; lpxC mutation that increases membrane permeability, read-out: MIC E. coli D22): 0.25 µg/mL
remaining activity at 100 µM [19]: 102%

COc1ccc2nccc(CCN3CCC(NCc4ccc(Br)cc4)CC3)c2n1 [Compound 1]
MIC MRSA (QA-11.7) [20]: 0.5 µg/mL (≈ 1.1 µM)
MIC E. coli D22 [21]: 0.125 µg/mL (≈ 0.274 µM)
MIC E. coli (ATCC 25922) [22]: 2 µg/mL (≈ 4.39 µM)
MIC P. aeruginosa RDK 184 [23]: 128 µg/mL (≈ 281 µM)
IC50 [24]: 26 ± 10 nM
MIC E. coli N43 (CGSC# 5583) [25]: 0.125 µg/mL (≈ 0.274 µM)
MIC S. aureus (ATCC 29213) [26]: 0.125 µg/mL (≈ 0.274 µM)
MIC E. faecalis RDK 057 [27]: 0.5 µg/mL (≈ 1.1 µM)
Human TopoIIα (% RA at 100 µM) [28]: 98 ± 3%
MIC VRE [29]: 2 µg/mL (≈ 4.39 µM)
